Assay results as given in publication PMC6896740, “Safety, tolerability, pharmacokinetics, and pharmacodynamics of PF-06650833, a selective interleukin-1 receptor-associated kinase 4 (IRAK4) inhibitor, in single and multiple ascending dose randomized phase 1 studies in healthy subjects” (Arthritis Research & Therapy, 2019).

Test system: CYP3A
Assay: 4β-hydroxycholesterol/cholesterol ratio as endogenous marker of CYP3A
Format: in vivo, human
Conditions: MAD, doses up to 750 mg BID
From the text: The primary objective of study 2 was to determine the safety and tolerability of MAD of orally administered IR and MR formulations of PF-06650833 after a standard meal in healthy adult subjects. The secondary objective was to evaluate the plasma and urine PK profiles of PF-06650833 after repeat dosing. Exploratory objectives were to assess the effects of PF-06650833 on exploratory biomarkers of PD activity, including high-sensitivity C-reactive protein (hsCRP), and to evaluate cholesterol/hydroxycholesterol ratios as an endogenous marker for cytochrome P450 3A (CYP3A) induction or inhibition.
For both studies, samples of blood (and urine in study 2) were taken for evaluation of PK/PD parameters (see Additional file 1: Supplemental Methods). […] Plasma and urine samples were analyzed using validated, sensitive, and specific liquid chromatography tandem mass spectrometric methods (at Pfizer Inc., Groton, CT, USA, for study 1 and at Worldwide Pharmacokinetics, Dynamics and Metabolism, Cambridge, MA, USA, for study 2). The lower limit of quantification for PF-06650833 in plasma was 0.0500 ng/mL. The lower limit of quantification for PF-06650833 in urine was 1.00 ng/mL. Serum samples were also analyzed for hsCRP, and plasma samples were analyzed for 4β-hydroxycholesterol and cholesterol. […]
35 Plasma samples were analyzed using a validated, sensitive , and specific liquid […]

CC[C@@H]1[C@H](F)C(=O)N[C@@H]1COc1nccc2cc(C(N)=O)c(OC)cc12 [PF-06650833, 1-{[(2S,3S,4S)-3-Ethyl-4-fluoro-5-oxopyrrolidin-2-yl]methoxy}-7-methoxyisoquinoline-6-carboxamide]
CYP3A induction or inhibition based on cholesterol/hydroxycholesterol ratio: no apparent trend for CYP3A induction or inhibition
